Data from US20220162610A1, “NOVEL RNA TRANSCRIPT” (PTC Therapeutics, Inc., priority 2020, published 2022).

Columns and labels:
HTT mRNA = experiment: RT-qPCR of HTT mRNA in HD patient B lymphocytes (GM04856); assay type: cell-based, human
Description: B lymphocytes (GM04856 cells) were plated in 6-well plates at 5×10^5 cells/well in 2 mL of 10% FBS, DMEM and incubated for 6 hours (37° C., 5% CO2, 100% relative humidity). Cells were then treated with HTT-C1 at 125 nM (in 0.5% DMSO) in triplicate for 24 hours. RNA was purified with the RNeasy Mini Kit (Qiagen) according to the manufacturer's protocol. Samples were prepared for RT-PCR (described previously) using 0.04 μL of each primer (at 100 μM). For reverse transcription and PCR, the following steps were performed: RT step: 48° C. (15 min); PCR steps: Step 1: 95° C. (10 min), Step 2: 95° C. (30 sec), Step 3: 55° C. (30 sec), Step 4: 68° C. (1 min); Steps 2 to 4 were repeated for 34 cycles, then held at 4° C. PCR products were separated on 2% agarose E-gels, stained with ethidium bromide and visualized using a UVP gel imager.
To test if the small molecule-induced spliced transcripts are unstable due to nonsense-mediated decay (NMD), GM04856 lymphoblast cells were treated with cycloheximide (CHX). First cells were treated with DMSO or 250 nM HTT-C1 for 18 h. DMSO or 10 uM CHX was then added, and cells harvested for RNAs after 2 h, 4 h, and 8 h.

[1] = Oral pharmacokinetics in WT littermates of the BACHD colony; assay type: in vivo, mouse; conditions: single oral dose of 10 mg/kg
Description: Oral pharmacokinetics (PK) of compounds was evaluated in WT littermates from the BACHD colony (FVB background). Mice were treated with test compounds (10 mg/kg) by oral gavage in 0.5% hydroxypropylmethyl cellulose (HPMC) with 0.1% Tween 80. Blood was collected by terminal cardiac puncture at specified time points (3 mice per time point) and centrifuged to generate plasma. Brain tissue was collected at the time of blood collection and homogenized in water. Protein was precipitated from plasma and brain homogenates with acetonitrile, methanol mixture (5:1, v:v) containing an internal standard that is a close analog of the test compounds. The mixture was filtered through an EMD Millipore MultiScreen™ Solvinert Filter Plate (MSRLN04, Millipore, Burlington, Mass.). Calibration standards were prepared in the same matrix and processed with the testing samples. Filtrates were analysed using Acquity ultra performance liquid chromatography (UPLC) system (Waters Corporation) tandem with Xevo TQ-s Spectrometer (Waters Corporation). Samples were injected on to a Waters UPLC Acquity BEH C18 Column (2.1*50 mm, 1.7 μm) maintained at 50° C. The injection volume was 3 μL and the mobile phase flow rate was 0.45 mL/min. The mobile phase consisted of 2 solvents: A) 0.1% formic acid in water and B) 0.1% formic acid in acetonitrile. […]

SH-SY5Y cells = experiment: RNA-seq analysis of transcriptome and splicing changes in SH-SY5Y cells; assay type: cell-based, human; conditions: for splicing events altered: 24 h
Description: SHY5Y cells were seeded in 6-well plates at 6×10^5 cells/well in 2 mL 10% FBS, DMEM and incubated for 4 hours. Cells were then treated with two biological replicates of HTT-C1 at 24 nM or 100 nM (in 0.1% DMSO), or four biological replicates of vehicle control (DMSO) for 24 hours (37° C., 5% CO2, 100% relative humidity). HEK293 cells transfected with U1 snRNA minigene constructs treated with either duplicates of 1 μM HTT-C1 or 0.5% DMSO control and incubated for 48 hours (37° C., 5% CO2, 100% relative humidity).
For library preparation and sequencing, mRNA was enriched from about 3 μg of total RNA using oligo(dT) beads (ThermoFisher Scientific). The mRNA was fragmented randomly using fragmentation buffer followed by cDNA synthesis using the mRNA template and random hexamers primer. Second-strand synthesis buffer (Illumina), deoxynucleotides, ribonuclease H and DNA polymerase I were added to initiate second-strand synthesis. After a series of terminal repair, A-ligation and sequencing adaptor ligation, the double-stranded cDNA library was size selected and enriched by PCR. RNA libraries were sequenced in a HiSeq sequencer (Illumina).
RNA sequencing reads were mapped to human genome (hg19) using Spliced Transcripts Alignment to a Reference (STAR) software (version 2.5) (Dobin et L., (2013) Bioinformatics 1; 29(1):15-21). Uniquely mapped reads (with MAPQ>10) having <5 nt/100 nt mismatches were used for analysis.
For gene expression analysis, the number of reads in a coding sequence (CDS) region of protein-coding genes and exonic regions of non-coding genes were counted and analyzed using DESeq2 (Love et al., (2014) Genome Biology, 15:550). For splicing analysis, reads were counted for different exons or exonic regions. For each exon, a Percent-Spliced-In (PSI) value was calculated using the percent of average read number supporting the inclusion of the exon (include both the upstream and downstream junctions) among all reads supporting either the inclusion or the exclusion of an exon. A minimal of 20 for the denominator of PSI calculation was required. Otherwise a “NA” value would be generated. PSI values for biological replicates were averaged and the PSI difference between two treatment groups was calculated. For statistical test, a 2×2 read counts table was made for each exon with rows for reads supporting inclusion or exclusion and columns for the two comparing sample groups (biological replicates were combined). Fisher's Exact Test was used for statistical test. PSI change of >20% (or <−20%) and P-value <0.001 was used to select exons being regulated by the treatment.

In the case of CC1(C)CC(Oc2ccc(-c3ccc(-c4ccnc(O)c4)cc3O)nn2)CC(C)(C)N1 [HTT-C1], the “reduction in HTT mRNA (RT-qPCR)” value (HTT mRNA; 250 nM, GM04856 lymphoblast cells, 18 h plus 2-8 h) is reported as ~80% and the “lowering of the amount of HTT mRNA as compared to the DMSO control” value (HTT mRNA; 24-hour treatment, 125 nM, B-lymphocytes from an HD patient) is reported as “about 85%”.
In the case of CC1(C)CC(Oc2ccc(-c3ccc(-c4cn[nH]c4)cc3O)nn2)CC(C)(C)N1 [HTT-C2], the plasma exposure [1] is reported as “superior exposure to HTT-C1”, the “UP cassette exons with no annotation for at least one splice site” value (SH-SY5Y cells; 24 nM) is reported as 22% and the “expression of HTT (RNA-seq)” value (SH-SY5Y cells; 24 nM (~2x the IC50)) is reported as “selectively and potently downregulated expression of HTT”. For the same compound, the splicing events altered (SH-SY5Y cells; 24 nM) was 165, the “UP cassette exons with no annotation for at least one splice site” value (SH-SY5Y cells; 100 nM) was 44% and the splicing events altered (SH-SY5Y cells; 100 nM) was 215. For the same compound, the pseudoexons activated (SH-SY5Y cells; FIG. 6D comparison with U1-GA variant) was 27 and the pseudoexons induced (SH-SY5Y cells; at either concentration (24 nM or 100 nM)) was 31.
